Square brackets hold non-standard residues; d marks the D form. Peptide text beside a SMILES is read from it.
Biological target: T1, ETA receptor (ETAR) (Homo sapiens, UniProt P25101)
T1 construct: gene EDNRA
T1 sequence (P25101 21-427): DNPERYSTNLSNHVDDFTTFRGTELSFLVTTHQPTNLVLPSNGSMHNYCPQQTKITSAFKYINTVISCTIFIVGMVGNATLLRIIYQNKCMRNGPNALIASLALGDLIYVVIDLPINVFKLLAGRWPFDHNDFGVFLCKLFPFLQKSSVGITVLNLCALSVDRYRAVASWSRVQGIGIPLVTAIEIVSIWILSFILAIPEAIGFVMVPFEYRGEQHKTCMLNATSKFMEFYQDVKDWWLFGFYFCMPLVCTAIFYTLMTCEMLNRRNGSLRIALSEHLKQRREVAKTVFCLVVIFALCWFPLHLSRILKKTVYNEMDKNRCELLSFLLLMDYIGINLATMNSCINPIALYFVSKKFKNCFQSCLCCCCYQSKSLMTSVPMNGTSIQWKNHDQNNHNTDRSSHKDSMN
Assay: […]ET-1 radioligand displacement, recombinant human ETA in CHO-K1 cells
Format: cell-based
Conditions: read-out: ETAh 10^-5 M ^a

SMILES	Ki [µM]
COc1ccc(CN2C(=O)C[C@H](c3ccc4c(c3)OCO4)[C@H]2C(=O)O)cc1 (racemic) [31h, (±)-trans 3-(1,3-Benzodioxol-5-yl)-1-[(4-methoxyphenyl)methyl]-5-oxo-proline]	3.3 ± 1.1
CC(C)C[C@@H]1NC(=O)[C@@H](C(C)C)NC(=O)[C@@H]2CCCN2C(=O)[C@@H](CC(=O)O)NC(=O)[C@@H](Cc2c[nH]c3ccccc23)NC1=O [BQ-123] (cyclo(L[dW][dD]P[dV]))	0.0054 ± 0.0008

Reference: PMC7221592, “Synthesis and Molecular Modelling Studies of New 1,3-Diaryl-5-Oxo-Proline Derivatives as Endothelin Receptor Ligands” (Molecules, 2020)
